Results: US20100041632A1, “USES OF THE CARBOXY-AMIDO-TRIAZOLE COMPOUNDS AND SALTS THEREOF” (priority 2006, published 2010)

Legend:
rats = experiment: Granulomatous tissue formation (implanted tampon); assay type: in vivo
Protocol: 44 rats (160 g) were randomly divided into 4 groups (11 rats/group). Animals were slightly anaesthetized by ether. After sterilization, the groin was cut bilaterally. A sterile tampon (50 mg) was implanted (sc). On the same day, the following treatments were administered: N.S. (i.p., control group), 0.067 mg/kg/day dexamethasone (i.p., positive control), 20 mg/kg/day CAI (p.o., dissolved in PEG 400, test group) and 0.067 mg/kg/day dexamethasone+20 mg/kg/day CAI (p.o., dissolved in PEG 400, combination group). After 7 days administration, the animals were sacrificed. The cotton was removed. The granulomatous tissue was dried at 60° C. oven for 12 hr and weighed. Increment in the dry weight of the tissue was taken as measure of granuloma formation. The Increment was adjusted for respective body weight, and the mean value for each group was calculated.

Kunming mice [1] = experiment: Effect of CAI on drug addiction caused by morphine (naloxone-induced jumping); settings: mouse, in vivo
Protocol: 160 Kunming mice (18-22 g, half male and half female) were divided into 4 groups randomly, with 40 mice per group:
Control group with solvent, PEG400/N.S. (10 μl/g/day PEG400, (ig), 4 days);
Group treated with CAI, CAI/N.S. (CAI is resolved in PEG400 to reach a final concentration of […], 20 mg CAI/kg/day was administered (ig) for 4 days, N.S. was taken according to morphine administration in table 1);
Group treated with morphine, PEG400/morphine (10 μl/g/day PEG400 was administered (ig) for 4 days, morphine was administered according to the table below);
4 hours after the morphine administration on the fifth day, animals of each group was injected (ip) with 1 mg/kg naloxone and then put into a tank (5000 ml) immediately. The jump frequency in 30 minutes was recorded. Two-factor analysis of variance by SPSS was performed to analyse the experiment results.

TNF-α = TNF-α levels in paw tissue and serum of adjuvant arthritis rat (ELISA); assay type: in vivo; settings: AA rats, day 29, ELISA
Protocol: Blood was collected from eve socket on day 29 and left in room temperature to allow coagulating. Then serum was separated by centrifugation at 3000 rpm for 10 min and kept in −20° C. After animals were sacrificed, the subcutaneous tissue of the right hind paw and that surrounding the tarsotibial joints was removed, broke into pieces, and placed in 5 ml normal saline (0.9%). The tissues were homogenized in a high speed homogenizer. Then the homogenate was centrifuged at 4° C. and 10,000 rpm for 15 min. The supernatants were collected and stored at −20° C. until further analysis.
IL-1β and TNF-α levels in paw tissue and serum were measured using specific rat ELISA kits according to the manufacturer's instructions.

Kunming mice [2] = experiment: Formalin test (analgesic effect); assay type: in vivo
Protocol: 320 Kunming mice (18-22 g, half male and half female) were divided into 4 groups randomly with 80 animals in each group.
Control group with dissolvent (PEG400/N.S.): 10 μl PEG400 was administered (ig) twice with the interval of 24 hours. The pain intensity test was carried out 8 hours after the second administration. 200 μl N.S. is injected (sc) 5 minutes before the test.
(§1) Morphine/PEG400 group: 10 μl PEG400 was administered (ig) twice with the interval of 24 hours. The pain intensity test was carried out 8 hours after the second administration. Morphine (2 mg/kg body weight) was injected (sc) 5 minutes before the test.
(§2) CAI/N.S. group: CAI (20 mg/kg body weight, 2 mg/ml) was administered (ig) twice with the interval of 24 hours. The pain intensity test was carried out 8 hours after the second administration. 200 μl N.S. was injected (sc) 5 minutes before the test.
(§3) The pain intensity test was carried out 8 hours after the second administration. Morphine (2 mg/kg body weight) was injected (sc) 5 minutes before the test.
5 minutes after the morphine or N.S. injection, 20 μl 2% formalin was injected (sc) into the subplantar space of the hind paw. The animals were placed immediately in a glass cylinder hanging on a holder, with a mirror placed below with 30° slope to observe the paw responses. The pain responses of the animals with injected paws were recorded; a pain ranking was recorded as follows: 3=the injected paw is licked, bitten, or shaken; 2=the injected paw is elevated and is not in contact with any other surface; 1=the injected paw has little or no weight on it; 0=the injected paw is not favored. The duration of each of the 4 behavioral categories was recorded. The observation lasted for 15 minutes. A pain intensity score was calculated by multiplying the amount of time spent in each category by its assigned category score and adding these products together.

Kunming mice [3] = experiment: Croton oil-induced ear edema mouse model; assay type: in vivo
Protocol: Male Kunming mice, weighted 18-22 g, were randomly divided to the following experiment groups, 20 mice/group:
Negative control: normal saline was injected (ig), 0.1 ml/10 g/day for 3 consecutive days.
Vehicle control: PEG400 was injected (ig), […] for 3 consecutive days.
Positive control: Dexamethasone (0.2 mg/ml) was injected (ip), 0.1 ml/10 g/day for 3 consecutive days.
Test group: CAI or its analogs (2 mg/ml, analogs are as described in example 5) was administered (ig), 0.1 ml/10 g/day for 3 consecutive days.
8 hours after the last administration, 20 μl of croton oil solution (2%) was applied to the right ear of each mouse. The left ear remained untreated as control. The animals were sacrificed 4 hours later, and a piece of tissue was punched from the same position of the treated and untreated ear. The tissues were weighed on a 0.1 mg balance. The difference in weight between the two pieces of tissue of each mouse was taken as a measure of swelling intensity.

Kunming mice [4] = experiment: Hot plate test (analgesic effect); assay type: in vivo
Protocol: Kunming mice (18-22 g, female) were randomly divided into 4 groups with 20 animals per group.
Control group with dissolvent: 10 μl PEG400 was administered (ig) twice with the interval of 24 hours. The pain intensity test was carried out 8 hours after the second administration. 200 μl N.S. was injected (sc) 5 minutes before the test.
as §1, §2, §3
The mice were placed onto a hot plate (53±0.5° C.) and the latency periods (second) of hopping responses were recorded as the pain threshold index.

Question: For `NC(=O)c1nnn(Cc2cc(Cl)c(C(=O)c3ccc(Cl)cc3)c(Cl)c2)c1N` [CAI, 5-amino-1-[3,5-dichloro-4-(4-chlorobenzoyl chloride)benzyl]-1H-1,2,3-triazole-4-carboxamide], which “granulomatous tissue:bady weight ratio (mean ± std)” value (rats; 7 days, CAI 20 mg/kg/day p.o., dexamethasone 0.067 mg/kg/day i.p.) is on record?
Answer: The value was 0.060 ± 0.00479.

Question: And the “Effect on granulomatous tissue formation (in words)” value (rats; two-way ANOVA)?
Answer: Its value is “potent in inhibiting granulomatous tissue formation”.

Question: What about the “Addiction / withdrawal syndrome (in words)” value (Kunming mice [1]) of the same molecule?
Answer: Its value is “does not cause addiction”.

Question: And the “TNF-α levels in paw tissue and serum (in words)” value (TNF-α)?
Answer: Its value is “significantly reduced”.

Question: What about the “Pain intensity score (mean ± std)” value (Kunming mice [2]; 2% formalin sc hind paw, 15 minutes observation, CAI 20 mg/kg ig twice, morphine 2 mg/kg sc) of the same molecule?
Answer: The value was 1007 ± 255.

Question: What about the “Analgesic effect in formalin test (in words)” value (Kunming mice [2]; pain scores compared with the control group) of the same molecule?
Answer: The value was “decrease significantly”.

Question: What about the “Swelling intensity (mg) mean ± std” value (Kunming mice [3]; ear weight difference 4 hours after 2% croton oil, CAI/analogs 2 mg/ml ig, dexamethasone 0.2 mg/ml ip, 0.1 ml/10 g/day, 3 days) of the same molecule?
Answer: Its value is 7.8 ± 0.2 mg.

Question: What about the “Anti-inflammatory effect in ear edema model (in words)” value (Kunming mice [3]; mouse, in vivo) of the same molecule?
Answer: Its value is “obvious anti-inflammatory effects”.

Question: What about the “Pain threshold (sec, mean ± std)” value (Kunming mice [4]; hot plate 53±0.5° C., latency of hopping response, CAI 20 mg/kg ig twice, morphine 2 mg/kg sc) of the same molecule?
Answer: The value was 19.9 ± 6.2 s.

Question: And the “Analgesic effect in hot plate test (in words)” value (Kunming mice [4]; two-factor ANOVA)?
Answer: Its value is “neither have obvious analgesic effect alone”.
